Columns and labels:
[1] = Effect of various dosages of ketoconazole on fenretinide levels in mouse plasma (Example 3, HPLC); type: in vivo; settings: NOD/SCID mice; ketoconazole 37, 75 or 150 mg/kg/day, nine doses, starting two days prior to fenretinide 180 mg/kg/day, five doses; all dose levels, P<0.05
Description: Animals were sacrificed four hours after the last drug dosing and levels of fenretinide measured in the blood plasma by a HPLC methodology.

[2] = nude mice bearing SMS-KCNR xenografts; ketoconazole 50 mg/kg/day, nine doses, starting two days prior to fenretinide 180 mg/kg/day, five doses
[3] = in vivo; settings: nude (nu/nu), mouse, 180 mg/kg/day
Protocol: The fluconazole dose approximately corresponded to a human equivalent dose of 100 mg/day for a 70 kg human. […] These doses are within the standard range of human treatment doses for both of these antifungal agents. Animals were sacrificed four hours after the last drug dosing and levels of fenretinide measured in the plasma by a HPLC methodology.

For `CC(=O)N1CCN(c2ccc(OCC3COC(Cn4ccnc4)(c4ccc(Cl)cc4Cl)O3)cc2)CC1` (stereo not drawn) [ketoconazole], the “effect on mean fenretinide level in plasma compared to controls” value [1] was “significantly increased” and the “effect on fenretinide levels in tumor tissue” value [2] was “increased”.

`CC1=C(/C=C/C(C)=C/C=C/C(C)=C/C(=O)Nc2ccc(O)cc2)C(C)(C)CCC1` [fenretinide, N-(4-hydrophenyl) retinamide] gave a concentration at 4 h [3] of 12.6 µM.

From patent US20140329832A1, “METABOLIC DEGRADATION INHIBITORS FOR ANTI-HYPERPROLIFERATIVE AGENTS” (CHILDRENS HOSPITAL LOS ANGELES, priority 2007, published 2014)
